Data: ChEMBL document CHEMBL3763146 (J Med Chem, 2016)

Tests used:
[1] = target: T1, Beta-3 adrenergic receptor (Homo sapiens, UniProt P13945); assay: Agonist activity at human beta3 adrenergic receptor expressed in CHO cells assessed as accumulation of cAMP after 30 mins by TR-FRET assay; type: functional, cell-based
Target sequence in this assay (P13945 whole entry): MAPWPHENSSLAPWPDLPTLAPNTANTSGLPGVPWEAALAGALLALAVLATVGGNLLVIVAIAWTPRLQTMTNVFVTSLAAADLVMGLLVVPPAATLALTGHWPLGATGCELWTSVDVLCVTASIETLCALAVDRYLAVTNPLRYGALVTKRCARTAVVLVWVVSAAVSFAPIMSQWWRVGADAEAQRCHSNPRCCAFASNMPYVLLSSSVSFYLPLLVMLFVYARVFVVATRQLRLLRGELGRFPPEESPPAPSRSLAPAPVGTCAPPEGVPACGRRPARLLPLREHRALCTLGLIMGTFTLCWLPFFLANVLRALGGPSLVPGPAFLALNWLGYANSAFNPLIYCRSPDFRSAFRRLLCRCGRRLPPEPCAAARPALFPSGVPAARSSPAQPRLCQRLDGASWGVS

Cytochrome P450 3A4 = Cytochrome P450 3A4 (Homo sapiens, UniProt P08684); assay: Inhibition of CYP3A4 in human liver microsomes assessed as testosterone 6beta-hydroxylation; type: ADME
[2] = target: Voltage-dependent L-type calcium channel subunit alpha-1C (Homo sapiens, UniProt Q13936); assay: Displacement of [3H]-diltiazem from human Cav1.2 channel
[3] = target: Sodium channel protein type 2 subunit alpha (Homo sapiens, UniProt Q99250); assay: Inhibition of human Nav1.2 channel expressed in Xenopus oocytes by two-intracellular microelectrode voltage clamp method; type: cell-based
[4] = target: Sodium-dependent serotonin transporter (Homo sapiens, UniProt P31645); assay: Inhibition of human SERT expressed in HEK293 cells preincubated for 30 mins followed by fluorescent substrate addition measured after 30 mins by plate reader analysis; type: cell-based
[5] = target: T1, Beta-3 adrenergic receptor; assay: Agonist activity at human beta3 adrenergic receptor expressed in CHO cells assessed as accumulation of cAMP after 30 mins by TR-FRET assay relative to (R)-(-)-isoproterenol; type: functional, cell-based
Cytochrome P450 2D6 = Cytochrome P450 2D6 (Homo sapiens, UniProt P10635); assay: Inhibition of CYP2D6 in human liver microsomes assessed as dextraomethorphan O-demethylation; type: ADME
Cytochrome P450 2C9 = Cytochrome P450 2C9 (Homo sapiens, UniProt P11712); assay: Inhibition of CYP2C9 in human liver microsomes assessed as diclofenac alpha'-hydroxylation; type: ADME
[6] = Induction of phospholidosis in human HepG2 cells incubated overnight by […] in presence of fluorescent labeled phospholipid probe NBD-PE; type: cell-based; conditions: read-out: A50
[7] = target: Beta-1 adrenergic receptor (Homo sapiens, UniProt P08588)
Description: Displacement of [125]I-cyanopindolol from recombinant human beta1 adrenergic receptor after 1 hr by scintillation counting method

[8] = target: Beta-2 adrenergic receptor (Homo sapiens, UniProt P07550)
Description: Displacement of [125]I-cyanopindolol from human recombinant beta2 adrenergic receptor after 1 hr by scintillation counting method

[9] = Distribution coefficient, logD of the compound at pH 7.4; type: physicochemical; conditions: octanol/water
Rattus norvegicus [10] = assay: Increase in circulating free fatty acid level in iv infused Sprague-Dawley rat after 45 mins by liquid chromatography-tandem mass spectrometric analysis; type: functional
Rattus norvegicus [11] = assay: Increase in circulating glycerol level in iv infused Sprague-Dawley rat after 45 mins by liquid chromatography-tandem mass spectrometric analysis; type: functional
Rattus norvegicus [12] = assay: Dose normalized total AUC in rat at 2 mg/kg, po; type: ADME, organism-based; conditions: in vivo
[13] = Plasma clearance in rat at 1 mg/kg, iv or 2 mg/kg, po; type: ADME, organism-based
[14] = Oral bioavailability in rat at 2 mg/kg; type: ADME, organism-based; conditions: in vivo
[15] = target: Voltage-gated inwardly rectifying potassium channel KCNH2 (Homo sapiens, UniProt Q12809); assay: Binding affinity to human ERG channel
[16] = Half life in rat at 1 mg/kg, iv or 2 mg/kg, po; type: ADME, organism-based; conditions: in vivo
[17] = Stability in dog plasma assessed as parent compound remaining at 24 hrs by LC-MS analysis; type: ADME, cell-free, Canis lupus familiaris; conditions: read-out: Stability
[18] = Stability in rat plasma assessed as parent compound remaining at 24 hrs by LC-MS analysis; type: ADME, cell-free; conditions: read-out: Stability
[19] = Stability in rhesus monkey plasma assessed as parent compound remaining at 24 hrs by LC-MS analysis; type: ADME, cell-free, Macaca mulatta; conditions: read-out: Stability
[20] = Stability in human plasma assessed as parent compound remaining at 24 hrs by LC-MS analysis; type: ADME, cell-free; conditions: read-out: Stability

Chain of Sodium channel protein type 2 subunit alpha (Q99250 whole entry, looked up): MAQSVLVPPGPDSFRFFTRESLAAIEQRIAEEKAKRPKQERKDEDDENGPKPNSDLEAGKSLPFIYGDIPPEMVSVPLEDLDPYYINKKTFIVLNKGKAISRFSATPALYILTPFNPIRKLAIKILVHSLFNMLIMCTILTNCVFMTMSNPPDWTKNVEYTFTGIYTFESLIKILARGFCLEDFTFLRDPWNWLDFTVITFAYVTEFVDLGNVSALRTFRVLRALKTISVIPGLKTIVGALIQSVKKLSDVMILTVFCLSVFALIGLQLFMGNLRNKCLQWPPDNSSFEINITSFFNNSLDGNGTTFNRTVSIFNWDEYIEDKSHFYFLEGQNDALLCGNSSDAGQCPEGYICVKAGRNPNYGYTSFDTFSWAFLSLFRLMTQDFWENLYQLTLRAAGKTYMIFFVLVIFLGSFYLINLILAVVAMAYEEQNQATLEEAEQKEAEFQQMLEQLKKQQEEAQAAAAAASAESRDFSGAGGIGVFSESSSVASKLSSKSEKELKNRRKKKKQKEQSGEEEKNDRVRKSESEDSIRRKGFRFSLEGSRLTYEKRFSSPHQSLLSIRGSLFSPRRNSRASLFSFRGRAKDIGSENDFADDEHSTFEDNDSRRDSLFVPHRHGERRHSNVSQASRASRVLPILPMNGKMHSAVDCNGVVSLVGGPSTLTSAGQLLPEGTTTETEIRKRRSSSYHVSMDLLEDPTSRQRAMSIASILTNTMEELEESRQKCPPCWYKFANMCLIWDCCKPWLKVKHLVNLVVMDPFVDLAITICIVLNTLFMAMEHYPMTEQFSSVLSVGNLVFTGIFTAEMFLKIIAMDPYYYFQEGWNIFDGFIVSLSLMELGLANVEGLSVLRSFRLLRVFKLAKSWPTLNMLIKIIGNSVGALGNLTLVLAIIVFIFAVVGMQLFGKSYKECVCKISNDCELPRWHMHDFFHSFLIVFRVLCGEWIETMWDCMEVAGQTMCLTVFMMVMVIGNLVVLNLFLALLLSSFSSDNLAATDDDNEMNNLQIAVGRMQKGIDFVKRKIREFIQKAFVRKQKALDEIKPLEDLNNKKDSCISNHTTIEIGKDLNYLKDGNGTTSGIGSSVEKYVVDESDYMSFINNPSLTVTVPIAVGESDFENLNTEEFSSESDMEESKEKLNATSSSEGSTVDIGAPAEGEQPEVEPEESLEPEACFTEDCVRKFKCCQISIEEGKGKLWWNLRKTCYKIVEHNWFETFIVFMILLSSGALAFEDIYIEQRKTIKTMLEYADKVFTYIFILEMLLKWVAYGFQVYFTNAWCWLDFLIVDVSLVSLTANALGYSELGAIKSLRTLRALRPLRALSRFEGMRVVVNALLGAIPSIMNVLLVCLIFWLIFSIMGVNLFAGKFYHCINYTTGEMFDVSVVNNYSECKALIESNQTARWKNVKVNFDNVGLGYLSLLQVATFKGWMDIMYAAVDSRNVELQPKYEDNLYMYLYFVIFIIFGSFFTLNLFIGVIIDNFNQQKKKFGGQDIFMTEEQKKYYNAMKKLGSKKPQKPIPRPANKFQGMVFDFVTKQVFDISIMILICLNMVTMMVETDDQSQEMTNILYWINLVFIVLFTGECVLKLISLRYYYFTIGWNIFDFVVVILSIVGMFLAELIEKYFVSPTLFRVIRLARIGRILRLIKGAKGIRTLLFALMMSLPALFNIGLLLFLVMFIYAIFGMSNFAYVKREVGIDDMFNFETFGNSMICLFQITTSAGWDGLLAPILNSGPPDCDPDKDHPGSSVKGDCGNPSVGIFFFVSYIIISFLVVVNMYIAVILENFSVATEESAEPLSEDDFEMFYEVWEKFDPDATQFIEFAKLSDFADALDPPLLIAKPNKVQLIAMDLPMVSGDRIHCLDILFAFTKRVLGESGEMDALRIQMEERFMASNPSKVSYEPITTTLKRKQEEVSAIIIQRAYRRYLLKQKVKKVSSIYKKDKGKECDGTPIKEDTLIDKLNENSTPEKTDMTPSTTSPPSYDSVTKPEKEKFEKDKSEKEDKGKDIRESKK
Chain of Voltage-dependent L-type calcium channel subunit alpha-1C (Q13936 whole entry): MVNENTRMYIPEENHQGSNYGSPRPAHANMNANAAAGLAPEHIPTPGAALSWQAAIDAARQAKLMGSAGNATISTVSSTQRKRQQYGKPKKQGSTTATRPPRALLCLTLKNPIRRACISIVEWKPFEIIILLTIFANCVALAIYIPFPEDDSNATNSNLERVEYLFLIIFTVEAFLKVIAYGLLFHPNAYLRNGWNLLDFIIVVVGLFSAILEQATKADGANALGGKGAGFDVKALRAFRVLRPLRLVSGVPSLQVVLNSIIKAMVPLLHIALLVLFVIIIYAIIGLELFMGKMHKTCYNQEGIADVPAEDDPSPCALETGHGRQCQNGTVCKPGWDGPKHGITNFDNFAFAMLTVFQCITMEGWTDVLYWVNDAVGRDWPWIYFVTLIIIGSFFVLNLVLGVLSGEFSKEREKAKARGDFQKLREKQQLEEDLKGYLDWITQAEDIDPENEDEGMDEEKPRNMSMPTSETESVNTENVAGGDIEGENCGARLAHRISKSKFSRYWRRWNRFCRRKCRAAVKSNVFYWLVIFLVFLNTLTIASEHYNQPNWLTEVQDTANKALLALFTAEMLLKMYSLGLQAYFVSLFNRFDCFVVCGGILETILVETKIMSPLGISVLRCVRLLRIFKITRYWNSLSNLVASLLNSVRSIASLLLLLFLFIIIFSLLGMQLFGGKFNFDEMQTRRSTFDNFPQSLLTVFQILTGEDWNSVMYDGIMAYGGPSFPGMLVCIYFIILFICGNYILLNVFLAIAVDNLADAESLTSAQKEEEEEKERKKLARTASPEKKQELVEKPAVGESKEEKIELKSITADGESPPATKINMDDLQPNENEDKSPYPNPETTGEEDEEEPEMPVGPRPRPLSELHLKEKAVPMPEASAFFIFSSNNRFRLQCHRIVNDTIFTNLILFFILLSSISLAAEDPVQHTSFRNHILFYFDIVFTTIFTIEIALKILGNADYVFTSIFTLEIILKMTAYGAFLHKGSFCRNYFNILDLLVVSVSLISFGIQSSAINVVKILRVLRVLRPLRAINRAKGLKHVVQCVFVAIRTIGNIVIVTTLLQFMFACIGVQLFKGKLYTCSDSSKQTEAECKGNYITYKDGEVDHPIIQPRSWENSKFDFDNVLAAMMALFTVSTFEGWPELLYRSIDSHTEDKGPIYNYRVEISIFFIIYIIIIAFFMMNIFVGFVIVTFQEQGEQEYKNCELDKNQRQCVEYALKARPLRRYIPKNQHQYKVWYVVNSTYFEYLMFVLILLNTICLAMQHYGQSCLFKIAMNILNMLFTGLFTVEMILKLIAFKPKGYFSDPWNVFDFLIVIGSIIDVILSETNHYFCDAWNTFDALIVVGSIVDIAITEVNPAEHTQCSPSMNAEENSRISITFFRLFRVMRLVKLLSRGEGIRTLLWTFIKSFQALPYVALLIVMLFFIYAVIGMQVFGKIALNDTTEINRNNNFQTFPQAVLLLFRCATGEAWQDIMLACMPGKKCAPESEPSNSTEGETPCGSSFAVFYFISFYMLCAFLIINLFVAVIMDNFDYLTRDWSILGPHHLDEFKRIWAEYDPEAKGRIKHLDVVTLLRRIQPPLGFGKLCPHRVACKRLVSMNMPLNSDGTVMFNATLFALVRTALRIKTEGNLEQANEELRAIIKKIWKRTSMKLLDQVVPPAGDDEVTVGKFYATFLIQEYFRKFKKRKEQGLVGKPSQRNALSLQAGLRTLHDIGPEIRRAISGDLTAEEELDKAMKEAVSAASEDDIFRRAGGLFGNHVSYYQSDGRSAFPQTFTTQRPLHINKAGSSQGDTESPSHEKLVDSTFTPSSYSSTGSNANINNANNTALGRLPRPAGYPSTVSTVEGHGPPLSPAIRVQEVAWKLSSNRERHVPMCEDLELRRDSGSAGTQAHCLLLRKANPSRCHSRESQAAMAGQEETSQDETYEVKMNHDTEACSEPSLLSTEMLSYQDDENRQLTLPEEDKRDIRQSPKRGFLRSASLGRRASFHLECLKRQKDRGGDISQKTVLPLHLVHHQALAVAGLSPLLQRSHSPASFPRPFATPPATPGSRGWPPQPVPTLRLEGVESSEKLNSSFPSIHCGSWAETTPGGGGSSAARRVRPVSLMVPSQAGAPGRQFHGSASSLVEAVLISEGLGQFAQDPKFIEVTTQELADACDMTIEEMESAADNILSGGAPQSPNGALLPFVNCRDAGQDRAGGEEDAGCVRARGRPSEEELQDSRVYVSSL
Chain of Beta-1 adrenergic receptor (P08588 whole entry): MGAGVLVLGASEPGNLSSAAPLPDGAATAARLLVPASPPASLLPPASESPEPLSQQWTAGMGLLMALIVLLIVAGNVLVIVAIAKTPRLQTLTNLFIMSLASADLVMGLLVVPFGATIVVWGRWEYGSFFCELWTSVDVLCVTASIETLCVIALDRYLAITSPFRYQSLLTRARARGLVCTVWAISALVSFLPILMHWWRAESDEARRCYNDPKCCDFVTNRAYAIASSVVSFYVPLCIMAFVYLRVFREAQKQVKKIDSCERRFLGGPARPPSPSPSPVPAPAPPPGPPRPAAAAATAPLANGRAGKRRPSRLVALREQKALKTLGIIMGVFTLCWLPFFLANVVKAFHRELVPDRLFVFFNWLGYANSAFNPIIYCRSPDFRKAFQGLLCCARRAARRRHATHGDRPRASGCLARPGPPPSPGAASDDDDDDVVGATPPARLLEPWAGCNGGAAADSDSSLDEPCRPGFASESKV

Row | EC50 [1] [µM] | IC50 (Cytochrome P450 3A4) [µM] | IC50 [3] [µM] | IC50 [4] [µM] | max activation [5] [%] | IC50 (Cytochrome P450 2D6) [µM] | IC50 (Cytochrome P450 2C9) [µM] | AC50 [6] [µM] | IC50 [7] [µM] | IC50 [8] [µM] | logD [9] | clearance [13] [mL/min/kg] | bioavailability [14] [%] | half-life [16] [h] | Compound | IC50 [2] [µM] | IC50 [15] [µM] | also measured
1 | 0.0017 | 96 | > 30 | 0.2 | 108 | 31 | > 100 | 8.6 | > 20 | 2.2 | 2 | – | – | – | O=C(Cn1cnc2ccccc2c1=O)Nc1ccc(C[C@@H]2CC[C@H]([C@H](O)c3ccccc3)N2)cc1 | 13 | – | –
2 | – | – | – | – | – | – | – | – | – | – | – | – | – | – | Nc1nc(CC(=O)Nc2ccc(CCNC[C@H](O)c3ccccc3)cc2)cs1 [MIRABEGRON] | – | – | Activity (Rattus norvegicus [10]): Dose-dependent effect; minimal effective dose (Rattus norvegicus [10]; 0.75 h, read-out: MED): 0.3 mg/kg; Activity (Rattus norvegicus [11]): Dose-dependent effect; minimal effective dose (Rattus norvegicus [11]; 0.75 h, read-out: MED): 0.3 mg/kg
3 | 0.0022 | > 100 | > 30 | 2.5 | 113 | 39 | > 100 | > 100 | > 20 | > 20 | 0.6 | 24 | 1 | 3 | O=C(Cn1cccnc1=O)Nc1ccc(C[C@@H]2CC[C@H]([C@H](O)c3ccccc3)N2)cc1 | > 30 | > 30 | AUC/dose (Rattus norvegicus [12]): 24 nM·h/mg/kg
4 | – | – | – | – | 84 | – | – | 94 | – | – | 0.9 | – | – | – | O=C(Nc1ccc(C[C@@H]2CC[C@H]([C@H](O)c3cccnc3)N2)cc1)[C@@H]1CCc2ccnn21 | – | – | remaining at 24 h [17]: 100%; remaining at 24 h [18]: 97%; remaining at 24 h [19]: 87%; remaining at 24 h [20]: 0%
5 | 0.0026 | – | > 30 | 0.8 | 87 | – | – | > 100 | > 20 | > 20 | – | 12 | < 1 | 8 | C[C@@H](C(=O)Nc1ccc(C[C@@H]2CC[C@H]([C@H](O)c3cccnc3)N2)cc1)n1ncccc1=O | > 30 | > 30 | AUC/dose (Rattus norvegicus [12]; BLD = below limit of detection): BLD
